Reference: ChEMBL document CHEMBL1201862, “PubChem BioAssay data set” (2004)
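Values below derive from 48-hour exposures of cells grown in 96-well plates, with endpoints linearly interpolated between the two concentrations bracketing the appropriate inhibition level. Here, GI50 denotes the concentration required for 50% inhibition of growth.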 Activity calls are given as the source filed them. No stated cut-off is given here; in the data, active = GI50 up to about 1.1 µM and inactive = higher. Square brackets hold non-standard residues; d marks the D form. Peptide text beside a SMILES is read from it. ξ: configuration not given here. ξ2Thi = NC(Cc1cccs1)C(=O)O; ξR = N=C(N)NCCCC(N)C(=O)O; ξI = CCC(C)C(N)C(=O)O; ξL = CC(C)CC(N)C(=O)O; ξK = NCCCCC(N)C(=O)O; ξT = CC(O)C(N)C(=O)O; ξA = CC(N)C(=O)O

How the values were obtained:
Test in all cases: growth of human tumour cells (NCI), 48 h
IGROV-1 = test system: IGROV-1
NCI/ADR-RES = test system: NCI/ADR-RES
BT-549 = test system: BT-549
SK-MEL-5 = test system: SK-MEL-5
SR = test system: SR
SF-539 = test system: SF-539
SNB-75 = test system: SNB-75
Hs-578T = test system: Hs-578T
SN12C = test system: SN12C
PC-3 = test system: PC-3
DU-145 = test system: DU-145
EKVX = test system: EKVX
A549 = test system: A549
HOP-62 = test system: HOP-62
M14 = test system: M14
NCI-H460 = test system: NCI-H460
SNB-19 = test system: SNB-19
SW-620 = test system: SW-620
UO-31 = test system: UO-31
HOP-92 = test system: HOP-92

| SMILES | GI50 (IGROV-1) | GI50 (NCI/ADR-RES) | GI50 (BT-549) | GI50 (SK-MEL-5) | GI50 (SR) | GI50 (SF-539) | GI50 (SNB-75) | GI50 (Hs-578T) | GI50 (SN12C) | GI50 (PC-3) | GI50 (DU-145) | GI50 (EKVX) | GI50 (A549) | GI50 (HOP-62) | GI50 (M14) | GI50 (NCI-H460) | GI50 (SNB-19) | GI50 (SW-620) | GI50 (UO-31) | GI50 (HOP-92) |
| --- | --- | --- | --- | --- | --- | --- | --- | --- | --- | --- | --- | --- | --- | --- | --- | --- | --- | --- | --- | --- |
| ClC(Cl)(Cl)C1CCOC1n1nc2ccccc2n1 (stereo unspecified) | > 100 µM (inactive) | > 100 µM (inactive) | > 100 µM (inactive) | > 100 µM (inactive) | > 100 µM (inactive) | > 100 µM (inactive) | 28.2 µM (inactive) | > 100 µM (inactive) | > 100 µM (inactive) | > 100 µM (inactive) | > 100 µM (inactive) | > 100 µM (inactive) | > 100 µM (inactive) | > 100 µM (inactive) | > 100 µM (inactive) | > 100 µM (inactive) |  |  |  |  |
| CCC(C)C(NC(=O)C(Cc1cccs1)NC(=O)C(CC(C)C)NC(=O)C(CC(C)C)NC(=O)C(CCCCN)NC(=O)C(CCCN=C(N)N)NC(=O)[C@H](Cc1ccc(O)cc1)NC(=O)C(NC(=O)C(C)NC(=O)C(N)CC(C)C)C(C)O)C(=O)NC(CC(C)C)C(N)=O (stereo partly specified) (H-[ξL][ξA][ξT]Y[ξR][ξK][ξL][ξL][ξ2Thi][ξI][ξL]-NH2) |  | > 50 µM (inactive) | > 50 µM (inactive) | > 50 µM (inactive) | > 50 µM (inactive) | > 50 µM (inactive) | > 50 µM (inactive) | > 50 µM (inactive) | > 50 µM (inactive) | > 50 µM (inactive) | > 50 µM (inactive) | > 50 µM (inactive) | > 50 µM (inactive) | > 50 µM (inactive) | > 50 µM (inactive) | > 50 µM (inactive) | > 50 µM (inactive) | > 50 µM (inactive) | > 50 µM (inactive) |  |
| CCOC(=O)c1nc2ccc(C(F)(F)F)cc2nc1Oc1ccc(OC)cc1 | > 100 µM (inactive) | > 100 µM (inactive) | > 100 µM (inactive) | > 100 µM (inactive) |  | > 100 µM (inactive) | > 100 µM (inactive) | > 100 µM (inactive) | > 100 µM (inactive) | > 100 µM (inactive) | > 100 µM (inactive) | 55.2 µM (inactive) | > 100 µM (inactive) | > 100 µM (inactive) | > 100 µM (inactive) | > 100 µM (inactive) | > 100 µM (inactive) | > 100 µM (inactive) | > 100 µM (inactive) | 82.2 µM (inactive) |
| COc1ccc(N2C(=O)C(=O)C3(CCCCC3)C2=O)c(OC)c1OC |  | > 100 µM (inactive) | 34 µM (inactive) | > 100 µM (inactive) | > 100 µM (inactive) | > 100 µM (inactive) | > 100 µM (inactive) | > 100 µM (inactive) | > 100 µM (inactive) | > 100 µM (inactive) | > 100 µM (inactive) | > 100 µM (inactive) | > 100 µM (inactive) |  | > 100 µM (inactive) |  | > 100 µM (inactive) | > 100 µM (inactive) | > 100 µM (inactive) |  |
| O=c1c(NCc2ccccc2)c(C2(c3ccccc3F)SCCCS2)c1=O | > 100 µM (inactive) | > 100 µM (inactive) | > 100 µM (inactive) | > 100 µM (inactive) |  | > 100 µM (inactive) | > 100 µM (inactive) | > 100 µM (inactive) | > 100 µM (inactive) | > 100 µM (inactive) | > 100 µM (inactive) | > 100 µM (inactive) | > 100 µM (inactive) | > 100 µM (inactive) | > 100 µM (inactive) | > 100 µM (inactive) | > 100 µM (inactive) | > 100 µM (inactive) | > 100 µM (inactive) | > 100 µM (inactive) |
| CCOC(=O)c1ccc(Nc2nc3cc(C(F)(F)F)ccc3nc2-c2ccccc2)cc1 | 36.1 µM (inactive) | 70.5 µM (inactive) | > 100 µM (inactive) | 65 µM (inactive) | > 100 µM (inactive) | 65.5 µM (inactive) | 13.5 µM (inactive) | 36.1 µM (inactive) | 86.1 µM (inactive) | 22.2 µM (inactive) | > 100 µM (inactive) | 49.8 µM (inactive) | > 100 µM (inactive) | 20.9 µM (inactive) |  | 45.7 µM (inactive) | 29.2 µM (inactive) | 63.2 µM (inactive) | > 100 µM (inactive) |  |
| CCOC(=O)c1nnsc1NC(=O)NN | > 100 µM (inactive) | > 100 µM (inactive) | > 100 µM (inactive) | > 100 µM (inactive) |  | > 100 µM (inactive) | > 100 µM (inactive) | > 100 µM (inactive) | > 100 µM (inactive) | > 100 µM (inactive) | > 100 µM (inactive) | > 100 µM (inactive) | > 100 µM (inactive) | > 100 µM (inactive) | > 100 µM (inactive) | > 100 µM (inactive) | > 100 µM (inactive) | > 100 µM (inactive) | > 100 µM (inactive) |  |
| COc1ccc(-n2sc3ncc([N+](=O)[O-])cc3c2=O)cc1 | > 100 µM (inactive) | > 100 µM (inactive) | > 100 µM (inactive) | > 100 µM (inactive) | > 100 µM (inactive) | > 100 µM (inactive) | > 100 µM (inactive) | 32.1 µM (inactive) | > 100 µM (inactive) | > 100 µM (inactive) | > 100 µM (inactive) | > 100 µM (inactive) | > 100 µM (inactive) | > 100 µM (inactive) | > 100 µM (inactive) | > 100 µM (inactive) | > 100 µM (inactive) | > 100 µM (inactive) | > 100 µM (inactive) |  |
| O=C1CC2OCC=C3CN4CCC56c7ccccc7N1C5C2C3CC46O (stereo unspecified) | > 100 µM (inactive) | > 100 µM (inactive) | > 100 µM (inactive) | > 100 µM (inactive) |  | > 100 µM (inactive) | > 100 µM (inactive) | > 100 µM (inactive) | > 100 µM (inactive) | > 100 µM (inactive) | > 100 µM (inactive) | > 100 µM (inactive) | > 100 µM (inactive) |  | > 100 µM (inactive) | > 100 µM (inactive) | > 100 µM (inactive) | > 100 µM (inactive) | > 100 µM (inactive) | > 100 µM (inactive) |
| O=C(c1ccccc1)c1ccc2[nH]c(-c3c(Cl)c(Cl)c(Cl)c(Cl)c3C(=O)N/N=C/c3ccccc3)nc2c1 | 14.9 µM (inactive) | 19.8 µM (inactive) | 28.5 µM (inactive) | 14.5 µM (inactive) |  | 25.1 µM (inactive) | 17.9 µM (inactive) | 37.7 µM (inactive) | 18.9 µM (inactive) | 24.1 µM (inactive) | 38 µM (inactive) | 18.4 µM (inactive) | 27.7 µM (inactive) | 23.1 µM (inactive) | 31.2 µM (inactive) |  | 32.6 µM (inactive) | 37.2 µM (inactive) | 27.5 µM (inactive) | 23.7 µM (inactive) |
| Nc1ncnc2c1ccn2CC=C(CO)CO | > 100 µM (inactive) | > 100 µM (inactive) | > 100 µM (inactive) | > 100 µM (inactive) |  | > 100 µM (inactive) | > 100 µM (inactive) | > 100 µM (inactive) | > 100 µM (inactive) | > 100 µM (inactive) | > 100 µM (inactive) | > 100 µM (inactive) | > 100 µM (inactive) | > 100 µM (inactive) | > 100 µM (inactive) | > 100 µM (inactive) | > 100 µM (inactive) | > 100 µM (inactive) | > 100 µM (inactive) | > 100 µM (inactive) |
| OCCSCc1cc2c(O)c(c1)Cc1cc(CSCCO)cc(c1O)Cc1cc(CSCCO)cc(c1O)Cc1cc(CSCCO)cc(c1O)C2 | 3.65 µM (inactive) | 22.2 µM (inactive) | 3.3 µM (inactive) | 2.69 µM (inactive) |  | 4.02 µM (inactive) |  | 8.43 µM (inactive) | 4.59 µM (inactive) | 3.51 µM (inactive) | 4.91 µM (inactive) | 15 µM (inactive) | 4.86 µM (inactive) | 5.01 µM (inactive) | 3.08 µM (inactive) | 2.89 µM (inactive) | 4.69 µM (inactive) | 3.92 µM (inactive) | 13.8 µM (inactive) | 4.26 µM (inactive) |
| COc1cc2cc(C(=O)N3CC(CCl)c4c3cc(N)c3ccccc43)[nH]c2cc1OCCN(C)C (stereo unspecified) | < 0.005 µM (active) | 0.00931 µM (active) | 0.051 µM (active) | < 0.005 µM (active) |  | < 0.005 µM (active) | < 0.005 µM (active) | 0.027 µM (active) | 0.00597 µM (active) | < 0.005 µM (active) | < 0.005 µM (active) | 0.00809 µM (active) | < 0.005 µM (active) | < 0.005 µM (active) | < 0.005 µM (active) | < 0.005 µM (active) | 0.00644 µM (active) | < 0.005 µM (active) | < 0.005 µM (active) | < 0.005 µM (active) |
| COC1=CC(=O)N(C(=O)C2CSC(C(CO)NC(=O)c3csc(/C=N/O)n3)=N2)C1 (stereo unspecified) | > 100 µM (inactive) | > 100 µM (inactive) | > 100 µM (inactive) | > 100 µM (inactive) | > 100 µM (inactive) | > 100 µM (inactive) | 0.302 µM (active) | 15.9 µM (inactive) | > 100 µM (inactive) | > 100 µM (inactive) | > 100 µM (inactive) | > 100 µM (inactive) |  | > 100 µM (inactive) | > 100 µM (inactive) | > 100 µM (inactive) | > 100 µM (inactive) | > 100 µM (inactive) |  |  |
| Clc1ccc(CSCc2ccc(Cl)cc2Cl)c(Cl)c1 | 41.8 µM (inactive) | > 100 µM (inactive) | 97.5 µM (inactive) | 29.9 µM (inactive) |  | > 100 µM (inactive) | 48.3 µM (inactive) | 79.4 µM (inactive) | > 100 µM (inactive) | 44.1 µM (inactive) | 39.6 µM (inactive) | 57.5 µM (inactive) | 34.3 µM (inactive) | > 100 µM (inactive) | 79.8 µM (inactive) | 95.9 µM (inactive) | > 100 µM (inactive) | 42.8 µM (inactive) | > 100 µM (inactive) | 54.2 µM (inactive) |
